US9855257B2, “4-alkynyl imidazole derivative and medicine comprising same as active ingredient” (KAKEN PHARMACEUTICAL CO., LTD., priority 2013, dated 2018)

Columns and labels:
[1] = system: Carrageenin Induced Paw Edema in Rats; assay: Anti-inflammatory effect on carrageenin induced paw edema in rats; assay type: in vivo, rat; details: positive control, maximum efficacy at doses of 10˜30 mg/kg
Experimental: Test for Evaluating the Anti-Inflammatory Effect on Carrageenin Induced Paw Edema in Rats
The animals were Wistar male rats (7-week old). The paw volume of the right hind leg was measured with a paw volume meter (PLETHYSMOMETER, Ugo Basile Model 7141 or 7150). One hour after orally administering a test compound at a dose of 10 mg/5 mL/kg, a carrageenin treatment group was given a 1 w/v % carrageenin solution and a non-treatment group given distilled water, each administered subcutaneously to the footpad of the right hind leg at a dose of 0.1 mL. Four hours after the treatment with carrageenin (or distilled water), the paw volume was measured and the change in paw volume from the pre-treatment value was calculated. The anti-inflammatory effect of the test compound was confirmed using the percent paw edema suppression (see below) as an indicator. In the present experimental models, Cerecoxib (COX inhibitor already available on the market as an anti-inflammatory/analgesic agent) was used as a positive control.

[2] = biological target: T1, rat EP4 receptor (Rattus norvegicus, UniProt P43114); assay: Rat EP4 receptor antagonistic action by the reporter assay method; assay type: cell-based; details: COS-7 cells expressing rat EP4 receptor, CRE-LUC reporter, PGE2 1×10^−8 mol/L; geometric mean of three cases; read-out: Intensity of EP4 Receptor Antagonistic Activity IC50
T1 construct: its translated region was integrated into the expression vector pShooter (Invitrogen); expressed in transfected cells; host or cells: COS-7 cells (Cercopithecus aethiops kidney), transiently co-transfected with ratEP4-pShooter and a CRE-LUC reporter vector
T1 sequence (P43114 whole entry): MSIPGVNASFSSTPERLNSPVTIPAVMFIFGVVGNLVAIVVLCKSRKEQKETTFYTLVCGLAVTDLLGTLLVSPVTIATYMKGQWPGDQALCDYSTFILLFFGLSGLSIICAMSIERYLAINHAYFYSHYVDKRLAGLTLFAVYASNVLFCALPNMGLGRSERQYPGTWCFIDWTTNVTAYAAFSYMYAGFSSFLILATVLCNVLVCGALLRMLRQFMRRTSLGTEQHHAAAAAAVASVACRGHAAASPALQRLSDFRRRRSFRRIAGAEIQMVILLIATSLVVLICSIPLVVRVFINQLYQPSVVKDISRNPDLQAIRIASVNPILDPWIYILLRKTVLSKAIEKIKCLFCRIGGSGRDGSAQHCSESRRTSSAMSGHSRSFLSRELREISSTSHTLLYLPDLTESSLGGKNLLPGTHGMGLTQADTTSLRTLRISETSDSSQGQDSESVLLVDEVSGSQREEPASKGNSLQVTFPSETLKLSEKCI
Experimental: Test for Evaluating the Rat EP4 Receptor Antagonistic Action by the Reporter Assay Method
The first step was the cloning of the rat EP4 receptor. Total RNA was prepared from the kidney extracted from rats. With the total RNA used as a template, the rat EP4 receptor gene was cloned by RT-PCR and its translated region was integrated into the expression vector pShooter (Invitrogen) to prepare a rat EP4 receptor expressing vector (ratEP4-pShooter).
In the next step, rat EP4 receptor expressing cells for use in the reporter assay were prepared. COS-7 cells (derived from the kidney of Cercopithecus aethiops) were cultured in Dulbecco's Modified Eagle Medium (DMEM) (supplemented with 10% fetal bovine serum) in a 75-cm^2 cell culture flask. After the cells proliferated to a subconfluent state, the medium was removed and rinsed with phosphate buffered physiological saline (PBS). Trypsin-EDTA and a growth medium were used to recover the cells, which were then centrifuged. The supernatant was removed and the cells were suspended in DMEM. The cell suspension was seeded on a 96-well plate at a density of 2×10^4 cells/100 μL/well and cultured. The DMEM was mixed with Plus reagent, Lipofectamine 2000, the rat EP4 receptor expressing vector (ratEP4-pShooter) and a CRE-LUC reporter vector (CLONTECH) to prepare a transfection solution. Three hours after the seeding of the cells, 50 μL of the medium was removed and 50 μL/well of the transfection solution was added, followed by culture overnight. Negative control cells were prepared using pShooter in place of the receptor expressing vector. The cells were seeded on a 96-well plate for reporter assay and cultured.
The medium on the 96-well plate was removed and a test compound was added in an amount of 50 μL/well. After ca. 30-min culture, a PGE2 solution (2×10^−8 mol/L) was added in an amount of 50 μL/well (final concentration of PGE2: 1×10^−8 mol/L). As a PGE2-free control, there were provided wells to which a test medium had been added in an amount of 50 μL/well. About three hours later, the medium was removed and reporter assay was performed in accordance with the protocol accompanying the Steady-Glo Luciferase Assay System kit. Luminous intensity was measured with a microplate reader (Fusion-FPα, PerkinElmer) and EP4 receptor antagonistic activity (%) was determined by the following calculation formula: EP4 receptor antagonistic activity (%)=[1−(RLU(A,X)−RLU(0))/(RLU(PGE2)−RLU(0))]×100 RLU(A,X): Luminous intensity expressed in relative luminescence units (RLU) for the case where the test compound (A) X (mol/L) and PGE2 10^−8 mol/L were both added; RLU(PGE2): Luminous intensity for the case where only PGE2 10^−8 mol/L was added; RLU(0): Luminous intensity for the case where neither test compound nor PGE2 was added.
In addition, a dose-response curve was plotted from the EP4 receptor antagonistic activities at varying concentrations of each test compound and using the following approximation formula, the IC50 (the concentration of the test compound required to inhibit the PGE2 inducing activity by 50%) was calculated to determine the intensity of the compound's EP4 receptor antagonistic activity. The results are shown in Table 2: Y=Bottom+(Top−Bottom)/{1+10^(Log IC50−Log X)} Bottom: 0 Top: 100 X: Concentration of the test compound (mol/L) Y: EP4 receptor antagonistic activity (%)

[3] = system: Adjuvant Induced Arthritis in Rats; assay: Anti-inflammatory and analgesic effects on adjuvant induced arthritis in rats; assay type: in vivo, rat; set-up: Percent Effectiveness: scale not given: direction of the effect not stated beside the values; details: Lewis male rats, oral 0.3 mg/kg once a day, day 9 to day 17 after adjuvant; for Percent paw edema suppression: measured at day 18, means of 8˜10 cases; for Percent Effectiveness: pain threshold at day 18, 8˜10 cases
Experimental: Test for Evaluating Anti-Inflammatory and Analgesic Effects on Adjuvant Induced Arthritis in Rats
The animals were Lewis male rats (6-week old). An adjuvant solution (2 mg/mL) was administered intradermally to the footpad of the left hind leg of each animal at a dose of 0.1 mL to create an arthritis model. Paw volume was measured with a paw volume meter (PLETHYSMOMETER, Ugo Basile Model 7141). For evaluation of pain thresholds, a probe fitted to the sensor site of Pressure Application Measurement (PAM, Ugo Basile Model 38500) was used to turn the foot sole of a rat upward (dorsiflexion) until it gave an indication of pain or discomfort (vocalization) and the load being applied was measured. Eight days after the treatment with the adjuvant, the paw volume and pain threshold of each treated foot were measured and the animals were grouped for oral administration of each test compound (0.3 mg/kg) which was performed for nine days on a once-a-day schedule starting at day 9 and ending at day 17 after the treatment. At day 18 after the treatment, the paw volume and pain threshold of each […] foot were measured.
The anti-inflammatory effect of the test compound was confirmed using the percent paw edema suppression as an indicator. Percent paw edema suppression (%)=[(paw volume change in the control group−paw volume in each treatment group)/(paw volume change in the control group−paw volume change in the non-treatment group)]×100
As for the analgesic effect, the animals in the test compound group that had nociceptive thresholds greater than [(the mean nociceptive threshold of the control group)+2×standard deviation] were found “effective animals” and the percent effectiveness of each compound was calculated.

[4] = system: Carrageenin Induced Hyperalgesia in Rats; assay: Analgesic effect on carrageenin induced hyperalgesia in rats; assay type: in vivo; details: Rattus norvegicus, 2 h; SD male rats, oral 10 mg/5 mL/kg six hours after carrageenin, nociceptive threshold (Randall-Selitto) two hours after administration; 5˜7 cases; read-out: Percent Effectiveness
Experimental: Test for Evaluating Analgesic Effect on Carrageenin Induced Hyperalgesia in Rats
The animals were SD male rats (5-week old). Before treatment with carrageenin (or distilled water), the rats were measured for nociceptive thresholds in their right hind leg by the Randall-Selitto method and divided into a carrageenin treatment group and a non-treatment group to provide uniformity in nociceptive threshold. The carrageenin treatment group was given a 1 w/v % carrageenin solution and the non-treatment group given distilled water, each administered subcutaneously to the footpad of the right hind leg at a dose of 0.1 mL. Five hours after the treatment, the nociceptive thresholds were measured and the individuals with decreased thresholds were selected and grouped such that there was no inter-group difference in threshold. Six hours after the treatment, each test compound was orally administered at a dose of 10 mg/5 mL/kg. The control group was administered 0.5% methylcellulose. Two hours after the administration of the test compound (8 hours after the treatment), the nociceptive threshold was measured. The animals in the test compound group that had nociceptive thresholds greater than [(the mean nociceptive threshold of the control group)+2×standard deviation] were found “effective animals” and the percent effectiveness of each compound was calculated.

SMILES | IC50 [2] | further results
Cc1ccc(-c2cc(C(F)(F)F)nn2-c2ccc(S(N)(=O)=O)cc2)cc1 [Cerecoxib, reference compound] |  | Percent paw edema suppression at the maximum efficacy [1]: 32˜37%
Cc1ccc(Cn2c(Cl)nc(C#CC(C)(C)O)c2C(=O)NC2(c3ccc(C(=O)O)cc3)CC2)cc1 [Compound 68] | 6.1 nM | 
CC(C)(O)C#Cc1nc(Cl)n(Cc2ccc(C(F)(F)F)cc2)c1C(=O)NC[C@H]1CC[C@H](C(=O)O)CC1 [Compound 1, trans-4-({2-Chloro-4-(3-hydroxy-3-methyl-1-butyn-1-yl)-1-[4-(trifluoromethyl)benzyl]-1H-imidazole-5-carboxamido}methyl)cyclohexanecarboxylic acid] | 23.8 nM | Percent paw edema suppression [3]: 54%; Percent Effectiveness [3]: 30%
COC(C)(C)C#Cc1nc(Cl)n(Cc2ccc(C)cc2)c1C(=O)NC1(c2ccc(C(=O)O)cc2)CC1 [Compound 67, 4-(1-{2-Chloro-4-(3-methoxy-3-methyl-1-butyn-1-yl)-1-(4-methylbenzyl)-1H-imidazole-5-carboxamido}cyclopropyl)benzoic acid] | 2.1 nM | responders at 10 mg/kg [4]: 100%
COC(C)(C)C#Cc1nc(Cl)n(Cc2ccc(OC(F)(F)F)cc2)c1C(=O)N[C@@H](C)c1ccc(C(=O)O)cc1 [Compound 50] | 1.1 nM | 
COC(C)(C)C#Cc1nc(Cl)n(Cc2ccc(C(F)(F)F)cc2)c1C(=O)NCc1ccc(C(=O)O)cc1 [Compound 41] | 8.4 nM | 
Cc1ccc(Cn2c(Cl)nc(C#CC(C)(C)O)c2C(=O)NC[C@H]2CC[C@H](C(=O)O)CC2)cc1 [Compound 21, trans-4-{[2-Chloro-4-(3-hydroxy-3-methyl-1-butyn-1-yl)-1-(4-methylbenzyl)-1H-imidazole-5-carboxamido]methyl}cyclohexanecarboxylic acid] | 26.4 nM | Percent paw edema suppression [3]: 53%; Percent Effectiveness [3]: 20%
CC(C)(O)C#Cc1nc(Cl)n(Cc2ccc(C(F)(F)F)cc2)c1C(=O)NCc1ccc(C(=O)O)cc1 [Compound 2, 4-({2-Chloro-4-(3-hydroxy-3-methyl-1-butyn-1-yl)-1-[4-(trifluoromethyl)benzyl]-1H-imidazole-5-carboxamido}methyl)benzoic acid] | 14.1 nM | Percent paw edema suppression [3]: 21%; Percent Effectiveness [3]: 38%
CC(C)(O)C#Cc1nc(Cl)n(Cc2ccc(C(F)(F)F)cc2)c1C(=O)NC1(c2ccc(C(=O)O)cc2)CC1 [Compound 4] | 3 nM | 
CC(C)(O)C#Cc1nc(Cl)n(CCOc2ccc(Cl)cc2)c1C(=O)NCc1ccc(C(=O)O)cc1 [Compound 44] | 17.5 nM | responders at 10 mg/kg [4]: 50%
COC(C)(C)C#Cc1nc(Cl)n(Cc2cccc(OC(F)F)c2)c1C(=O)NCc1ccc(C(=O)O)cc1 [Compound 54] | 16.1 nM | 
COC(C)(C)C#Cc1nc(Cl)n(Cc2ccc(OC(F)F)cc2)c1C(=O)NCc1ccc(C(=O)O)cc1 [Compound 52] | 7.9 nM | 
CC(C)(C#Cc1nc(Cl)n(CCOc2ccc(Cl)cc2)c1C(=O)NC[C@H]1CC[C@H](C(=O)O)CC1)CO [Compound 61, Trans-4-({2-chloro-1-[2-(4-chlorophenoxy)ethyl]-4-(4-hydroxy-3,3-dimethyl-1-butyn-1-yl)-1H-imidazole-5-carboxamido}methyl)cyclohexanecarboxylic acid] | 26.6 nM | 
COC(C)(C)C#Cc1nc(Cl)n(Cc2ccc(F)cc2)c1C(=O)NCc1ccc(C(=O)O)cc1 [Compound 56, 4-{[2-Chloro-1-(4-fluorobenzyl)-4-(3-methoxy-3-methyl-1-butyn-1-yl)-1H-imidazole-5-carboxamido]methyl}benzoic acid] | 49.9 nM | 
COC(C)(C)C#Cc1nc(Cl)n(Cc2ccc(OC(F)F)cc2)c1C(=O)NCC1CCC(C(=O)O)CC1 (centres unmarked) [Compound 51] | 7.9 nM | 
COC(C)(C)C#Cc1nc(Cl)n(CCOc2ccc(Cl)cc2)c1C(=O)NCc1ccc(C(=O)O)cc1 [Compound 45] | 5.1 nM | responders at 10 mg/kg [4]: 50%
COC(C)(C)C#Cc1nc(C(F)F)n(CCOc2ccc(Cl)cc2)c1C(=O)NCc1ccc(C(=O)O)cc1 [Compound 64] | 26.1 nM | 
CC(C)(O)C#Cc1nc(C2CC2)n(Cc2ccc(C(F)(F)F)cc2)c1C(=O)NCc1ccc(C(=O)O)cc1 [Compound 20, 4-({2-cyclopropyl-4-(3-hydroxy-3-methyl-1-butyn-1-yl)-1-[4-(trifluoromethyl)benzyl]-1H-imidazole-5-carboxamido}methyl)benzoic acid] | 64.6 nM | 
COC(C)(C)C#Cc1nc(Cl)n(Cc2ccc(C(F)F)cc2)c1C(=O)NC[C@H]1CC[C@H](C(=O)O)CC1 [Compound 60, trans-4-({2-Chloro-1-[4-(difluoromethyl)benzyl]-4-(3-methoxy-3-methyl-1-butyn-1-yl)-1H-imidazole-5-carboxamido}methyl)cyclohexanecarboxylic acid] | 10.2 nM | 
O=C(NCC1CCC(C(=O)O)CC1)c1c(C#CC2(O)CCCC2)nc(Cl)n1Cc1ccc(C(F)(F)F)cc1 (centres unmarked) [Compound 16] | 7.3 nM | 
